# According to patent US8263584B2, “Imidazopyridines” (Hoffmann-La Roche Inc., priority 2009, dated 2012):
# Biological target: T1, PDE10A2 (Homo sapiens, UniProt Q9Y233)
# T1 construct: residues serine 449 to aspartate 789; His6 (H6) with Gateway linker and thrombin cleavage site (N, cleaved yes); made in house; host or cells: E. coli BL21(DE3) pLysS
# Assay: PDE10A2 inhibition, Scintillation Proximity Assay (SPA)
# Type: biochemical
# Conditions: catalytic domain of human PDE10A2 (S449-D789), 0.25 nM enzyme, 50 nM cGMP and 50 nM [3H]-cGMP, 30 minutes at room temperature
# Procedure: The following tests were carried out in order to determine the activity of the compounds of the present invention. PDE10 activity of the compounds of the present invention is determined using a Scintillation Proximity Assay (SPA)-based method similar to the one previously described (Fawcett, L. et al., Proc Natl Acad Sci USA (2000) 97(7):3702-3707). PDE10A1 and PDE10A2 are two splice variants of PDE10A. There are these 2 splice variants known, which differ in the N-terminal part of the protein. The catalytic domains of PDE10A1 and PDE10A2 are identical. The assay for PDE10A2 described below is therefore also representative for PDE10A1 and also for PDE10A in general. The PDE10A2 assay was performed in a two step procedure in 96-well micro titer plates. […] A range of concentrations of the potential inhibitor was used to generate data for calculating the concentration of inhibitor resulting in 50% of the effect (e.g. IC50, the concentration of the competitor inhibiting PDE10A2 activity 50%). Non-specific activity was tested without the enzyme. The reaction was initiated by addition of the substrate solution (cGMP and [^3H]-cGMP) and allowed to progress for 30 minutes at room temperature. The reaction was terminated by transferring 50 μl of the reaction mixture into an OptiPlate (Perkin Elmer) containing 25 μl of YSi-SPA scintillation beads (GE Healthcare) in 18 mM zinc sulphate solution (stop reagent). After 1 h under shaking, the plate was centrifuged one minute at 1000 rpm to allow beads to settle. Afterwards, radioactive counts were measured on a Perkin Elmer TopCount Scintillation plate reader. The catalytic domain of human PDE10[…], was amplified by PCR using cDNA (Origene) and the oligonucleotides 5'-[…]00001:character} […] no. 1) (with AttB1 recombination site in bold and thrombin protease cleavage site in […] no. 2) (with AttB2 recombination site in bold) which conferred Gateway recombination sites. The PCR product was used in a BP recombination reaction with pDONR221 to generate […]([…]-[…]) which was DNA sequence verified and then used in an LR recombination reaction with a Gateway modified version of pET11a. […] About 30% of the protein was in the soluble fraction of the cell homogenate. The protein was purified using sequential chromatography on Ni-NTA and […]. After thrombin digest at room temperature a […]/HiTrap Benzamindin chromatography removed impurities, uncleaved protein and thrombin. Final purification of PDE10A2([…]-[…]) was performed on a Superdex 75 size exclusion chromatography equilibrated with 25 mM HEPES pH 8.4, 0.15 M NaCl. The yield of pure protein was 2 mg/liter of culture volume is relatively low. The purity of the protein was >95%, monomeric and monodisperse as shown by SDS-PAGE, HPLC and analytical ultracentrifugation.
# T1 sequence (Q9Y233 715-1055): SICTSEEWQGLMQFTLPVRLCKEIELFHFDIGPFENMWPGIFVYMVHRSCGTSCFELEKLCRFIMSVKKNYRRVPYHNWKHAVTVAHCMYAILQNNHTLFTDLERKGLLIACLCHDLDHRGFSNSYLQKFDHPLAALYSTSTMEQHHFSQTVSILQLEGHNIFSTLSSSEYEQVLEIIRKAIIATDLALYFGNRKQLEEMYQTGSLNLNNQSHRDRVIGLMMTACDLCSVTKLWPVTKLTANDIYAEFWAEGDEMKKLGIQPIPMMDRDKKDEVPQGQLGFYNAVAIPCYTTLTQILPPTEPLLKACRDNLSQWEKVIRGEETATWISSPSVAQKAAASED
row,SMILES,IC50
1,"CC(O)CNC(=O)c1cnn(C)c1C(=O)Nc1ccn2cc(-c3ccccc3)nc2c1 (centres unmarked) [Example 35, 2-Methyl-2H-pyrazole-3,4-dicarboxylic acid 4-[(2-hydroxy-propyl)-amide]3-[(2-phenyl-imidazo[1,2-a]pyridin-7-yl)-amide]]",0.9 nM
2,"Cn1ncc(C(=O)N2CCC2)c1C(=O)Nc1ccn2cc(-c3ccccc3)nc2c1 [Example 26, 4-(Azetidine-1-carbonyl)-2-methyl-2H-pyrazole-3-carboxylic acid (2-phenyl-imidazo[1,2-a]pyridin-7-yl)-amide]",< 0.1 nM
3,"Cn1ncc(C(=O)N2CCNCC2)c1C(=O)Nc1ccn2cc(-c3ccccc3)nc2c1 [Example 46, 2-Methyl-4-(piperazine-1-carbonyl)-2H-pyrazole-3-carboxylic acid (2-phenyl-imidazo[1,2-a]pyridin-7-yl)-amide]",1 nM
4,"Cn1ncc(C(=O)NCC(O)C(F)(F)F)c1C(=O)Nc1ccn2cc(-c3ccccc3)nc2c1 (centres unmarked) [Example 39, 2-Methyl-2H-pyrazole-3,4-dicarboxylic acid 3-[(2-phenyl-imidazo[1,2-a]pyridin-7-yl)-amide]-4-[(3,3,3-trifluoro-2-hydroxy-propyl)-amide]]",3.3 nM
5,"COCCCNC(=O)c1cnn(C)c1C(=O)Nc1cc2nc(-c3ccccc3)cn2cn1 [Example 85, 2-Methyl-2H-pyrazole-3,4-dicarboxylic acid 4-[(3-methoxy-propyl)-amide]3-[(2-phenyl-imidazo[1,2-c]pyrimidin-7-yl)-amide]]",0.6 nM
6,"Cn1ncc(C(=O)NCC2CCCO2)c1C(=O)Nc1ccn2cc(-c3ccccc3)nc2c1 (centres unmarked) [Example 37, 2-Methyl-2H-pyrazole-3,4-dicarboxylic acid 3-[(2-phenyl-imidazo[1,2-a]pyridin-7-yl)-amide]-4-[(tetrahydro-furan-2-ylmethyl)-amide]]",3.5 nM
7,"Cn1ncc(C(=O)NCC2(CO)COC2)c1C(=O)Nc1ccn2cc(-c3ccccc3)nc2c1 [Example 33, 2-Methyl-2H-pyrazole-3,4-dicarboxylic acid 4-[(3-hydroxymethyl-oxetan-3-ylmethyl)-amide]3-[(2-phenyl-imidazo[1,2-a]pyridin-7-yl)-amide]]",2.3 nM
8,"Cn1ncc(C(=O)Nc2ccncc2)c1C(=O)Nc1ccn2cc(-c3ccccc3)nc2c1 [Example 55, 2-Methyl-2H-pyrazole-3,4-dicarboxylic acid 3-[(2-phenyl-imidazo[1,2-a]pyridin-7-yl)-amide]-4-pyridin-4-ylamide]",4.3 nM
9,"Cn1ncc(C(=O)N2CCOCC2CO)c1C(=O)Nc1ccn2cc(-c3ccccc3)nc2c1 (centres unmarked) [Example 53, 4-(3-Hydroxymethyl-morpholine-4-carbonyl)-2-methyl-2H-pyrazole-3-carboxylic acid (2-phenyl-imidazo[1,2-a]pyridin-7-yl)-amide]",3.3 nM
10,"Cn1ncc(C(=O)N2CCC2)c1C(=O)Nc1cc2nc(-c3ccccc3)cn2cn1 [Example 86, 4-(Azetidine-1-carbonyl)-2-methyl-2H-pyrazole-3-carboxylic acid (2-phenyl-imidazo[1,2-c]pyrimidin-7-yl)-amide]",0.3 nM
11,"CNC(=O)c1cn[nH]c1C(=O)Nc1ccn2cc(-c3ccccc3)nc2c1 [Example 65, 2H-Pyrazole-3,4-dicarboxylic acid 4-methylamide 3-[(2-phenyl-imidazo[1,2-a]pyridin-7-yl)-amide]]",41.8 nM

# The remaining molecules from weak to strong by IC50, led by results:
row,IC50,SMILES
1,10.7 nM,"CCOC(=O)c1cn[nH]c1C(=O)Nc1ccn2cc(-c3ccccc3)nc2c1 [Example 11, 5-(2-Phenyl-imidazo[1,2-a]pyridin-7-ylcarbamoyl)-1H-pyrazole-4-carboxylic acid ethyl ester]"
2,3.9 nM,"Cn1ncc(C(N)=O)c1C(=O)Nc1ccn2cc(-c3ccccc3)nc2c1 [Example 2, 2-Methyl-2H-pyrazole-3,4-dicarboxylic acid 4-amide 3-[(2-phenyl-imidazo[1,2-a]pyridin-7-yl)-amide]]"
3,2 nM,"Cn1ncc(C(=O)NC(CO)CO)c1C(=O)Nc1ccn2cc(-c3ccccc3)nc2c1 [Example 66, 2-Methyl-2H-pyrazole-3,4-dicarboxylic acid 4-[(2-hydroxy-1-hydroxymethyl-ethyl)-amide]3-[(2-phenyl-imidazo[1,2-a]pyridin-7-yl)-amide]]"
4,1.9 nM,"CC(CO)NC(=O)c1cnn(C)c1C(=O)Nc1ccn2cc(-c3ccccc3)nc2c1 (centres unmarked) [Example 36, 2-Methyl-2H-pyrazole-3,4-dicarboxylic acid 4-[(2-hydroxy-1-methyl-ethyl)-amide]3-[(2-phenyl-imidazo[1,2-a]pyridin-7-yl)-amide]]"
5,1.8 nM,"Cn1ncc(C(=O)NCCCO)c1C(=O)Nc1ccn2cc(-c3ccccc3)nc2c1 [Example 29, 2-Methyl-2H-pyrazole-3,4-dicarboxylic acid 4-[(3-hydroxy-propyl)-amide]3-[(2-phenyl-imidazo[1,2-a]pyridin-7-yl)-amide]]"
6,1.8 nM,"Cn1ncc(C(=O)NC2CCOC2)c1C(=O)Nc1ccn2cc(-c3ccccc3)nc2c1 (centres unmarked) [Example 41, 2-Methyl-2H-pyrazole-3,4-dicarboxylic acid 3-[(2-phenyl-imidazo[1,2-a]pyridin-7-yl)-amide]-4-[(tetrahydro-furan-3-yl)-amide]]"
7,1 nM,"Cn1ncc(C(=O)N2CCOCC2)c1C(=O)Nc1cc2nc(-c3ccccc3)cn2cc1C#N [Example 69, 2-Methyl-4-(morpholine-4-carbonyl)-2H-pyrazole-3-carboxylic acid (6-cyano-2-phenyl-imidazo[1,2-a]pyridin-7-yl)-amide]"
8,0.8 nM,"Cn1ncc(C(=O)N2CCS(=O)(=O)CC2)c1C(=O)Nc1ccn2cc(-c3ccccc3)nc2c1 [Example 48, 4-(1,1-Dioxo-thiomorpholine-4-carbonyl)-2-methyl-2H-pyrazole-3-carboxylic acid (2-phenyl-imidazo[1,2-a]pyridin-7-yl)-amide]"
9,0.3 nM,"Cn1ncc(C(=O)N2CCC2)c1C(=O)Nc1cc2nc(-c3ccccc3)cn2cc1Cl [Example 70, 4-(Azetidine-1-carbonyl)-2-methyl-2H-pyrazole-3-carboxylic acid (6-chloro-2-phenyl-imidazo[1,2-a]pyridin-7-yl)-amide]"
